Experimental data as given in patent US20090182031A1, “Reduction of Hair Growth” (The Gillette Company, a Delaware corporation, priority 2004, published 2009).

System: human hair follicles
Assay: Human hair follicle growth assay
Type: cell-based
Details: for % Reduction (hair growth): versus control
Text: Human skin was obtained from a plastic surgeon as a by-product of face-lift procedures. The skin samples generally consisted of haired and non-haired regions taken from the area of the face. Immediately after removal, the skin was placed in Williams E medium containing antibiotics, and kept refrigerated. The Williams E medium was commercially obtained (Life Technologies, Gaithersburg, Md.), and has been formulated with essential nutrients for maintaining viability of hair follicle in an in-vitro environment.
Human hair follicles in growth phase (anagen) were isolated from face-lift tissue under a dissecting scope using a scalpel and watchmakers forceps. The skin was sliced into thin strips exposing 2-3 rows of follicles that could readily be dissected. Follicles were placed into 0.5 ml Williams E medium supplemented with 2 mM L-glutamine, 10 ug/ml insulin, 10 ng/ml hydrocortisone, 100 units penicillin, 0.1 mg/ml streptomycin and 0.25 μg/ml amphotericin B. The follicles were incubated in 24 well plates (1 follicle/well) at 37° C. in an atmosphere of 5% CO2 and 95% air. Hair follicle images were taken in the 24-well plates under the dissecting scope under a power of 20×. Hair follicle lengths were measured on day 0 (day follicles were placed in culture) and again on day 6-7. In this system follicles appear to fully differentiate into a hair fiber and increase in length at a rate similar to the human, in vivo, rate of about 0.3 mm/day. For testing inhibitors of heat shock proteins, the inhibitors or anti-HSP antibody were included in the culture medium from time 0 and remained in the medium throughout the course of the experiment.

Structure (SMILES) | % Reduction (hair growth) (0.1 μM, day 0 to day 6) [%] | Length Increase (mm) (0.1 μM, follicle length day 6 minus day 0) | % Reduction (hair growth) (1 μM, day 0 to day 6) [%] | Length Increase (mm) (1 μM, follicle length day 6 minus day 0) | reduction of hair growth (submicromolar dose) | % Reduction (hair growth) (10 μM, day 0 to day 5) [%] | Length Increase (mm) (10 μM, follicle length day 5 minus day 0) | % Reduction (hair growth) (50 μM, day 0 to day 5) [%] | Length Increase (mm) (50 μM, follicle length day 5 minus day 0)
COC1=C2C[C@@H](C)C[C@H](OC)[C@H](O)[C@@H](C)/C=C(\C)[C@H](OC(N)=O)[C@@H](OC)/C=C\C=C(/C)C(=O)NC(=CC1=O)C2=O [Geldanamycin, 2-Azabicyclo[16.3.1]docosa-4,6,10,18,21-pentaene-3,20,22-trione, 9,13-dihydroxy-8,14,19-trimethoxy-4,10,12,16-tetramethyl-, 9-carbamate (8CI)] | 52 | 0.55 ± 0.13 | 74 | 0.30 ± 0.08 | over 50% | – | – | – | –
O=CN1CCC(=Cc2ccc3c(c2)OCO3)C1=O [KNK 437, 1-Pyrrolidinecarboxaldehyde, 3-(1,3-benzodioxol-5-ylmethylene)-2-oxo-(9CI)] | – | – | – | – | – | 57 | 0.75 ± 0.13 | 80 | 0.35 ± 0.12
